Laboratory results from US6737383B1, “Herbicidal oxadiazolidines” (priority 1999, dated 2004).

Experiments:
surinam grass = test: Test B pre/postemergence surinam grass; type: in vivo, Brachiaria decumbens
In short: (§1)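 Test chemicals in a non-phytotoxic solvent mixture with surfactant were sprayed preemergence onto planted seeds and postemergence onto plants 2 to 18 cm tall (1- to 4-leaf stage). After twelve to sixteen days in a greenhouse, injury was visually rated against untreated controls from 0 (no effect) to 10 (complete control).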

giant foxtail = test: Test B pre/postemergence giant foxtail; type: in vivo, Setaria faberii
In short: as §1

rape = test: Test B pre/postemergence rape; type: in vivo, Brassica napus
In short: as §1

bamyardgrass = test: Test B flood test barnyardgrass; type: in vivo, Echinochloa crus-galli; conditions: for Plant response rating, Barnyardgrass: scale 0 to 10, 0 is no effect, 10 is complete control; for Barnyardgrass plant response rating: scale of 0 to 10 where 0 is no effect and 10 is complete control
In short: (§2)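 Plants were grown to the 2-leaf stage before treatment with test chemical, then held in a greenhouse for twelve to sixteen days. Injury was visually rated against untreated controls on a 0–10 scale, where 0 is no effect and 10 is complete control.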

crabgrass = test: Test B pre/postemergence crabgrass; type: in vivo, Digitaria sanguinalis
In short: as §1

smallflower flatsedge = test: Test B flood test smallflower flatsedge; type: in vivo, Cyperus difformis
In short: as §2

soybean = test: Test B pre/postemergence soybean; type: in vivo, Glycine max
In short: as §1

blackgrass = test: Test B pre/postemergence blackgrass; type: in vivo, Alopecurus myosuroides
In short: as §1

wheat = test: Test B pre/postemergence wheat; type: in vivo, Triticum aestivum
In short: as §1

wild oat = test: Test B pre/postemergence wild oat; type: in vivo, Avena fatua
In short: as §1

sugar beet = test: Test B pre/postemergence sugar beet; type: in vivo, Beta vulgaris
In short: as §1

velvetleaf = test: Test B pre/postemergence velvetleaf; type: in vivo, Abutilon theophrasti
In short: as §1

pigweed = test: Test B pre/postemergence pigweed; type: in vivo, Amaranthus retroflexus
In short: as §1

rice = test: Test B flood test rice; type: in vivo, Oryza sativa
In short: as §2

corn = test: Test B pre/postemergence corn; type: in vivo, Zea mays
In short: as §1

bedstraw = test: Test B pre/postemergence bedstraw; type: in vivo, Galium aparine; conditions: Postemergence; for Plant response rating, Bedstraw: scale 0 to 10, 0 is no effect, 10 is complete control; for Bedstraw plant response rating: scale of 0 to 10 where 0 is no effect and 10 is complete control
In short: as §1

morningglory = test: Test B pre/postemergence morningglory; type: in vivo, Ipomoea hederacea
In short: as §1

purple nutsedge = test: Test B pre/postemergence purple nutsedge; type: in vivo, Cyperus rotundus
In short: as §1

cocklebur = test: Test B pre/postemergence cocklebur; type: in vivo, Xanthium strumarium
In short: as §1

duck salad = test: Test B flood test duck salad; type: in vivo, Heteranthera limosa; conditions: for Plant response rating, Ducksalad: scale 0 to 10, 0 is no effect, 10 is complete control; for Ducksalad plant response rating: scale of 0 to 10 where 0 is no effect and 10 is complete control
In short: as §2

[1] = Postemergence, Rate 125 g/ha, scale 0 to 10, 0 is no effect, 10 is complete control
[2] = Postemergence, Rate 250 g/ha, scale 0 to 10, 0 is no effect, 10 is complete control
[3] = Postemergence, Rate 500 g/ha, scale of 0 to 10 where 0 is no effect and 10 is complete control
[4] = Preemergence, Rate 62 g/ha, scale 0 to 10 (0 no effect, 10 complete control)
[5] = Preemergence, Rate 125 g/ha, scale of 0 to 10 where 0 is no effect and 10 is complete control
[6] = Preemergence, Rate 250 g/ha, scale of 0 to 10 where 0 is no effect and 10 is complete control
[7] = Rate 62 g/ha, Postemergence, scale of 0 to 10 where 0 is no effect and 10 is complete control
[8] = Preemergence, Rate 250 g/ha, scale 0 to 10, 0 is no effect, 10 is complete control
[9] = Preemergence, Rate 500 g/ha, scale 0 to 10, 0 is no effect, 10 is complete control
[10] = Postemergence (flood test), Rate 125 g/ha
[11] = Postemergence section (flood test species), Rate 500 g/ha
[12] = Rate 62 g/ha, Postemergence (flood test species)
[13] = flood test species, listed under Postemergence, Rate 250 g/ha
[14] = Postemergence section (flood test species), Rate 500 g/ha, scale of 0 to 10 where 0 is no effect and 10 is complete control
[15] = flood test species, listed under Postemergence, Rate 250 g/ha, scale 0 to 10, 0 is no effect, 10 is complete control

Structure (SMILES): CC(C)Cn1c(=O)on(C(=O)N(c2ccc(Cl)cc2)C(C)C)c1=O [Compound 417]
- Plant response rating, B. signalgrass (surinam grass; [1]): 0
- Plant response rating, B. signalgrass (surinam grass; [2]): 0
- B. signalgrass plant response rating (surinam grass; [3]): 0
- Plant response rating, B. signalgrass (surinam grass; [4]): 2
- Plant response rating, B. signalgrass (surinam grass; [5]): 3
- B. signalgrass plant response rating (surinam grass; [6]): 7
- B. signalgrass plant response rating (surinam grass; Preemergence, Rate 500 g/ha, scale of 0 to 10 where 0 is no effect and 10 is complete control): 7
- B. signalgrass plant response rating (surinam grass; [7]): 0
- Plant response rating, Giant foxtail (giant foxtail; [1]): 0
- Plant response rating, Giant foxtail (giant foxtail; [2]): 1
- Giant foxtail plant response rating (giant foxtail; [3]): 8
- Plant response rating, Giant foxtail (giant foxtail; [4]): 4
- Plant response rating, Giant foxtail (giant foxtail; [5]): 9
- Giant foxtail plant response rating (giant foxtail; [8]): 10
- Giant foxtail plant response rating (giant foxtail; [9]): 10
- Giant foxtail plant response rating (giant foxtail; [7]): 0
- Plant response rating, Rape (rape; [2]): 0
- Rape plant response rating (rape; [3]): 2
- Plant response rating, Rape (rape; [4]): 0
- Plant response rating, Rape (rape; [5]): 0
- Rape plant response rating (rape; [8]): 5
- Rape plant response rating (rape; [9]): 6
- Plant response rating, Barnyardgrass (bamyardgrass; [10]): 0
- Barnyardgrass plant response rating (bamyardgrass; [11]): 8
- Barnyardgrass plant response rating (bamyardgrass; [12]): 0
- Plant response rating, Barnyardgrass (bamyardgrass; [13]): 0
- Plant response rating, Crabgrass (crabgrass; [1]): 0
- Plant response rating, Crabgrass (crabgrass; [2]): 2
- Crabgrass plant response rating (crabgrass; [3]): 2
- Plant response rating, Crabgrass (crabgrass; [4]): 6
- Plant response rating, Crabgrass (crabgrass; [5]): 9
- Crabgrass plant response rating (crabgrass; [8]): 9
- Crabgrass plant response rating (crabgrass; [9]): 10
- Crabgrass plant response rating (crabgrass; [7]): 0
- S. Flatsedge plant response rating (smallflower flatsedge; [14]): 9
- Plant response rating, S. Flatsedge (smallflower flatsedge; [15]): 9
- Plant response rating, Soybean (soybean; [2]): 4
- Soybean plant response rating (soybean; [3]): 6
- Plant response rating, Soybean (soybean; [4]): 0
- Plant response rating, Soybean (soybean; [5]): 0
- Soybean plant response rating (soybean; [8]): 0
- Soybean plant response rating (soybean; [9]): 0
- Plant response rating, Blackgrass (blackgrass; [1]): 0
- Plant response rating, Blackgrass (blackgrass; [2]): 0
- Blackgrass plant response rating (blackgrass; [3]): 0
- Plant response rating, Blackgrass (blackgrass; [4]): 3
- Blackgrass plant response rating (blackgrass; [6]): 7
- Blackgrass plant response rating (blackgrass; [9]): 9
- Blackgrass plant response rating (blackgrass; [7]): 0
- Wheat plant response rating (wheat; [3]): 0
- Plant response rating, Wheat (wheat; [4]): 0
- Plant response rating, Wheat (wheat; [5]): 0
- Wheat plant response rating (wheat; [8]): 0
- Wheat plant response rating (wheat; [9]): 2
- Wild oats plant response rating (wild oat; [3]): 0
- Plant response rating, Wild oats (wild oat; [4]): 0
- Plant response rating, Wild oats (wild oat; [5]): 0
- Wild oats plant response rating (wild oat; [8]): 2
- Wild oats plant response rating (wild oat; [9]): 4
- Plant response rating, Sugarbeets (sugar beet; [2]): 0
- Sugarbeets plant response rating (sugar beet; [3]): 6
- Plant response rating, Sugarbeets (sugar beet; [4]): 0
- Plant response rating, Sugarbeets (sugar beet; [5]): 0
- Sugarbeets plant response rating (sugar beet; [8]): 2
- Sugarbeets plant response rating (sugar beet; [9]): 6
- Plant response rating, Velvetleaf (velvetleaf; [2]): 0
- Velvetleaf plant response rating (velvetleaf; [3]): 0
- Plant response rating, Velvetleaf (velvetleaf; [4]): 0
- Plant response rating, Velvetleaf (velvetleaf; [5]): 0
- Velvetleaf plant response rating (velvetleaf; [8]): 2
- Velvetleaf plant response rating (velvetleaf; [9]): 6
- Plant response rating, Redroot pigweed (pigweed; [2]): 0
- Redroot pigweed plant response rating (pigweed; [3]): 3
- Plant response rating, Redroot pigweed (pigweed; [4]): 0
- Plant response rating, Redroot pigweed (pigweed; [5]): 0
- Redroot pigweed plant response rating (pigweed; [8]): 4
- Redroot pigweed plant response rating (pigweed; [9]): 10
- Rice plant response rating (rice; [14]): 0
- Plant response rating, Rice (rice; [15]): 0
- Plant response rating, Corn (corn; [1]): 0
- Plant response rating, Corn (corn; [2]): 0
- Corn plant response rating (corn; [3]): 0
- Plant response rating, Corn (corn; [4]): 0
- Plant response rating, Corn (corn; [5]): 0
- Corn plant response rating (corn; [8]): 0
- Corn plant response rating (corn; [9]): 0
- Corn plant response rating (corn; [7]): 0
- Plant response rating, Bedstraw (bedstraw; Rate 125 g/ha): 0
- Plant response rating, Bedstraw (bedstraw; Rate 250 g/ha): 0
- Bedstraw plant response rating (bedstraw; Rate 500 g/ha): 6
- Bedstraw plant response rating (bedstraw; Rate 62 g/ha): 0
- Plant response rating, Morningglory (morningglory; [2]): 9
- Morningglory plant response rating (morningglory; [3]): 9
- Plant response rating, Morningglory (morningglory; [4]): 0
- Plant response rating, Morningglory (morningglory; [5]): 0
- Morningglory plant response rating (morningglory; [8]): 0
- Morningglory plant response rating (morningglory; [9]): 0
- Plant response rating, Nutsedge (purple nutsedge; [2]): 0
- Nutsedge plant response rating (purple nutsedge; [3]): 0
- Plant response rating, Nutsedge (purple nutsedge; [4]): 0
- Plant response rating, Nutsedge (purple nutsedge; [5]): 0
- Nutsedge plant response rating (purple nutsedge; [8]): 0
- Nutsedge plant response rating (purple nutsedge; [9]): 0
- Plant response rating, Cocklebur (cocklebur; [1]): 0
- Plant response rating, Cocklebur (cocklebur; [2]): 0
- Cocklebur plant response rating (cocklebur; [3]): 0
- Plant response rating, Cocklebur (cocklebur; [4]): 0
- Plant response rating, Cocklebur (cocklebur; [5]): 0
- Cocklebur plant response rating (cocklebur; [8]): 0
- Cocklebur plant response rating (cocklebur; [9]): 0
- Cocklebur plant response rating (cocklebur; [7]): 0
- Plant response rating, Ducksalad (duck salad; [10]): 0
- Ducksalad plant response rating (duck salad; [11]): 3
- Ducksalad plant response rating (duck salad; [12]): 0
- Plant response rating, Ducksalad (duck salad; [13]): 2
